Source: US11618747B2, “LXR modulators with bicyclic core moiety” (OrsoBio, Inc., priority 2018, dated 2023)
Like-named read-outs stand apart in the source and are kept apart here.

Legend:
[1] = target: T1, LXRβ ligand-binding domain (Homo sapiens, UniProt P55055, DUP175-175); experiment: TR-FRETβ activity assay (NCoA3 coactivator peptide recruitment); type: biochemical
T1 construct: amino acids 156-461; NP009052; made in house; host or cells: E. coli
T1 sequence (P55055 with tags, fused parts or gaps DUP175-175 limits assumed): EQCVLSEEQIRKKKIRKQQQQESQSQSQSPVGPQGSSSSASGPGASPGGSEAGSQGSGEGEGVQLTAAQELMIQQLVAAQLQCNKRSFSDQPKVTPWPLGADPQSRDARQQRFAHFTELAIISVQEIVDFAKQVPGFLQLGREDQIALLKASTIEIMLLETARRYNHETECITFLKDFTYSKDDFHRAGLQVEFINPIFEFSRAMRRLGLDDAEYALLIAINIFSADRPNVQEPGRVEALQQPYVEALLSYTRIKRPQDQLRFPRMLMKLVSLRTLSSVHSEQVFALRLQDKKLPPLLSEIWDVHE
Outline: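 Inverse agonism assessed by loss of coactivator recruitment, read as TR-FRET 665/615 nm after 1 h equilibration at 4 °C, in triplicate. Ten-point titration from 50 μM to 0.002 μM against LXRβ LBD (76 nM, GST fusion) prestimulated with 1 μM 24(S)-25-epoxycholesterol, with 400 nM NCoA3 peptide, pH 6.8. Sulfonyl acetic acids kept as 20 mM DMSO stocks with 100 mM TFA.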

full length (FL) LXRβ = target: T2, full length (FL) LXRβ (Homo sapiens, UniProt P55055, DUP175-175); experiment: LXR Gal4 reporter transient transfection assay (FL-M2H Gal4β); type: cell-based; settings: HEK293 cells
T2 construct: the full length (FL) proteins of LXRα (amino acids 1-447); NP005684; NP009052; expressed in transfected cells; host or cells: HEK293
T2 sequence (P55055 with tags, fused parts or gaps DUP175-175): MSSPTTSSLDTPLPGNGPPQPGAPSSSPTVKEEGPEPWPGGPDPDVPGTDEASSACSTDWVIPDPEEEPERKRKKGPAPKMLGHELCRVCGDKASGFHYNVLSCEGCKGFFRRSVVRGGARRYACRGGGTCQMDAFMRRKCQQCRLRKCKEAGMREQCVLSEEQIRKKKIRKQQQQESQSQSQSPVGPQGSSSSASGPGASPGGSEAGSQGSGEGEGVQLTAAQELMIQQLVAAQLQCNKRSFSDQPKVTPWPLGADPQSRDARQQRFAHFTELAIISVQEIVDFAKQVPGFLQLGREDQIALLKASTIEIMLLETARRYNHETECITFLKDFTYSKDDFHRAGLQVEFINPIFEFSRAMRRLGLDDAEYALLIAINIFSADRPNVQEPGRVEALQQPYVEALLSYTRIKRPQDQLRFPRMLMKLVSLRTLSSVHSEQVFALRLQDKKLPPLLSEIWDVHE
Outline: (§1)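 Mammalian two-hybrid in HEK293 cells transiently transfected with NFkB-AD-fused FL or LBD LXR plus GAL4-BD-fused SRC1 or NCoR cofactor domains and GAL4-responsive firefly luciferase reporter, Renilla-normalized. Compound added 4 h post-transfection (≤0.2% DMSO), 16 h incubation, luminescence read.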

[2] = Short term HFD mouse model: plasma and liver exposure; type: in vivo, mice (C57BL/6J); settings: HFD mice, 4 h after last dose
Protocol: Short Term HFD Mouse Model:
The in vivo transcriptional regulation of several LXR target genes by LXR modulators was assessed in mice.
For this, C57BL/6J were purchased from Elevage Janvier (Rennes, France) at the age of 8 weeks. After an acclimation period of two weeks, animals were preferred on a high fat diet (HFD) (Ssniff Spezialdiäten GmbH, Germany, Surwit EF D12330 mod, Cat. No. E15771-34), with 60 kcal % from fat plus 1% (w/w) extra cholesterol (Sigma-Aldrich, St. Louis, Mo.) for 5 days. Animals were maintained on this diet during treatment with LXR modulators. The test compounds were formulated in 0.5% hydroxypropylmethylcellulose (HPMC) and administered in three doses (from 1.5 to 20 mg/kg each) by oral gavage according to the following schedule: on day one, animals received treatment in the morning and the evening (ca. 17:00), on day two animals received the final treatment in the morning after a 4 h fast and were sacrificed 4 h thereafter. Animal work was conducted according to the national guidelines for animal care in Germany.
Upon termination, liver was collected, dipped in ice cold PBS for 30 seconds and cut into appropriate pieces. Pieces were snap frozen in liquid nitrogen and stored at −80° C. For the clinical chemistry analysis from plasma, alanine aminotransferase (ALT, IU/mL), cholesterol (CHOL, mg/dL) and triglycerides (TG, mg/dL) were determined using a fully-automated bench top analyzer (Respons®910, DiaSys Greiner GmbH, Flacht, Germany) with system kits provided by the manufacturer.

full length (FL) LXRα = target: T3, full length (FL) LXRα (Homo sapiens, UniProt Q13133); experiment: LXR Gal4 reporter transient transfection assay (FL-M2H Gal4α); type: cell-based; settings: HEK293 cells
T3 construct: the full length (FL) proteins of LXRα (amino acids 1-447); NP005684; expressed in transfected cells; host or cells: HEK293
T3 sequence (Q13133 1-447): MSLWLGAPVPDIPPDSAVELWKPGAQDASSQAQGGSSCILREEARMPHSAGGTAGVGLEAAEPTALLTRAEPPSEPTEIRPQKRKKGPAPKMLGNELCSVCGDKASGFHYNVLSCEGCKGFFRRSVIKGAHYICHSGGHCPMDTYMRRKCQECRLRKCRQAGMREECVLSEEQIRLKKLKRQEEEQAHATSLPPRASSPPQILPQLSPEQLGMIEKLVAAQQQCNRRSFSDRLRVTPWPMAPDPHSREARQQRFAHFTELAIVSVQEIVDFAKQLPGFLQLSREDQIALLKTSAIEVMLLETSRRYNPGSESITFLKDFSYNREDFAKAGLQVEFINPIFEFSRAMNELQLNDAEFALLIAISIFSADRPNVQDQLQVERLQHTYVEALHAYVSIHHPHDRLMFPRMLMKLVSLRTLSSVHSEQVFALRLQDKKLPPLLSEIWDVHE
Outline: as §1

[3] = TR-FRET, 1 μM 24(S)-25-epoxycholesterol prestimulation, read-out: FRETβ (EC50 range)
[4] = full length LXRβ, read-out: FL-M2H Gal4β (EC50 range)
[5] = full length LXRα, read-out: FL-M2H Gal4α (EC50 range)
[6] = 1 μM 24(S)-25-epoxycholesterol as prestimulating agonist
[7] = 1 μM 24(S)-25-epoxycholesterol as prestimulating agonist, read-out: FRETβ potency

Structure (SMILES) | EC50 [1, 3] [nM] | EC50 (full length (FL) LXRβ; [4]) [nM] | EC50 (full length (FL) LXRα; [5]) [nM] | other results
N#Cc1sccc1-c1c(-c2cccc(-c3ccc(C(=O)O)cc3Cl)c2)n(S(=O)(=O)c2ccc(C(F)F)cc2)c2ccc(F)cc12 [11/17] | < 100 | < 100 |  | liver exposure 4 h ([2]; three oral doses of 20 mg/kg): D (>10 μM); liver/plasma ratio 4 h ([2]; three oral doses of 20 mg/kg): C (30 to ≤100); plasma exposure 4 h ([2]; three oral doses of 20 mg/kg): C (C: 100 nM to <300 nM)
N#Cc1cccc(C#N)c1-c1c(-c2cccc([C@H]3CC[C@H](C(=O)O)CC3)c2)n(S(=O)(=O)c2ccc(C(F)F)cc2)c2ccc(F)cc12 [11/62] | 100 to 1000 | < 100 |  | liver exposure 4 h ([2]; three oral doses of 10 mg/kg): C (1 μM to ≤10 μM); liver/plasma ratio 4 h ([2]; three oral doses of 10 mg/kg): B (5 to ≤30); plasma exposure 4 h ([2]; three oral doses of 10 mg/kg): C (C: 100 nM to <300 nM)
Cc1ccc(S(=O)(=O)n2c(-c3cccc(-c4cc(F)c(C(=O)O)cc4Cl)c3)c(-c3ccsc3C#N)c3cc(F)ccc32)cc1 [12/2] | 100 to 1000 | < 100 | < 100 | 
Cc1ccc(S(=O)(=O)n2c(-c3cccc(-c4ccc(C(=O)O)c(F)c4Cl)c3)c(-c3ccsc3C#N)c3cc(F)ccc32)cc1 [12/3] | 100 to 1000 | < 100 | < 100 | 
COc1cc(-c2cccc(-c3c(-c4ccsc4C#N)c4cc(F)ccc4n3S(=O)(=O)c3ccc(C)cc3)c2)c(Cl)cc1C(=O)O [12/4] | 100 to 1000 | < 100 | < 100 | 
COc1c(C(=O)O)ccc(-c2cccc(-c3c(-c4ccsc4C#N)c4cc(F)ccc4n3S(=O)(=O)c3ccc(C)cc3)c2)c1Cl [12/5] | < 100 | < 100 | < 100 | 
Cc1ccc(S(=O)(=O)n2c(-c3cccc(-c4cc(C(=O)O)n[nH]4)c3)c(-c3ccsc3C#N)c3cc(F)ccc32)cc1 [12/6] | 1000 to 10000 | 1000 to 10000 | 100 to 1000 | 
Cc1ccc(S(=O)(=O)n2c(-c3cccc(-c4cc(C(=O)O)nn4C)c3)c(-c3ccsc3C#N)c3cc(F)ccc32)cc1 [12/7] | 100 to 1000 | 100 to 1000 | 100 to 1000 | 
Cc1ccc(S(=O)(=O)n2c(-c3cccc(-c4cc(C(=O)O)nn4C(C)C)c3)c(-c3ccsc3C#N)c3cc(F)ccc32)cc1 [12/8] | 1000 to 10000 | 100 to 1000 | 100 to 1000 | 
Cc1ccc(S(=O)(=O)n2c(-c3cccc(-c4ccc5c(C(=O)O)n[nH]c5c4)c3)c(-c3ccsc3C#N)c3cc(F)ccc32)cc1 [12/9] | 100 to 1000 | 100 to 1000 | 100 to 1000 | 
N#Cc1cccc(C#N)c1-c1c(-c2cccc(-c3ccc(S(=O)(=O)O)cc3Cl)c2)n(S(=O)(=O)c2ccc(C(F)F)cc2)c2ccc(F)cc12 [12/10] | < 100 | < 100 | < 100 | 
N#Cc1sccc1-c1c(-c2cccc(-c3ccc(C(=O)O)cc3)c2)n(S(=O)(=O)c2ccc3c(c2)CCC3)c2ccc(F)cc12 [23/3] | 100 to 1000 | < 100 | < 100 | 
CC(C)(O)c1ccc(S(=O)(=O)n2c(-c3cccc(-c4ccc(C(=O)O)cc4Cl)c3)c(-c3ccccc3C#N)c3cc(F)ccc32)cc1 [30/16] | 1000 to 10000 | 100 to 1000 | 100 to 1000 | 
COC(=O)C(C)(C)N(C)C(=O)C1CN(c2cccc(-c3c(-c4ccsc4C#N)c4cc(F)ccc4n3S(=O)(=O)c3ccc(C)cc3)c2)C1 [32/2] | 100 to 1000 | 100 to 1000 | 100 to 1000 | 
Cc1ccc(S(=O)(=O)n2c(-c3cccc(-c4ccc(C(=O)NS(C)(=O)=O)cc4Cl)c3)c(-c3ccsc3C#N)c3cc(F)ccc32)cc1 [32/4] | < 100 | < 100 | < 100 | 
CS(=O)(=O)NC(=O)c1ccc(-c2cccc(-c3c(-c4c(C#N)cccc4C#N)c4cc(F)ccc4n3S(=O)(=O)c3ccc(C(F)F)cc3)c2)c(Cl)c1 [32/5] | < 100 | < 100 |  | liver exposure 4 h ([2]; three oral doses of 10 mg/kg): B (300 nM to ≤1 μM); liver/plasma ratio 4 h ([2]; three oral doses of 10 mg/kg): B (5 to ≤30); plasma exposure 4 h ([2]; three oral doses of 10 mg/kg): D (D: <100 nM)
Cc1ccc(S(=O)(=O)n2c(-c3cccc(-c4ccc(C(=O)O)nc4C)c3)c(-c3ccsc3C#N)c3cc(F)ccc32)cc1 [36/1] | 100 to 1000 | < 100 | < 100 | 
Cc1ccc(S(=O)(=O)n2c(-c3cccc(-c4cccc(S(C)(=O)=Nc5nnn[nH]5)c4)c3)c(-c3ccsc3C#N)c3cc(F)ccc32)cc1 (stereo not drawn) [37/1] | 100 to 1000 | 100 to 1000 | 100 to 1000 | 
Cc1ccc(S(=O)(=O)n2c(-c3cccc(N4CC(C(=O)O)C4)c3)c(-c3csc(C#N)c3)c3cc(F)ccc32)cc1 [C3/29, reference compound] |  |  |  | FRETβ efficacy (value in brackets) [1, 6]: −102%; EC50 [1, 7]: 4230 nM; FL-M2H Gal4α potency (full length (FL) LXRα): inactive; FL-M2H Gal4β potency (full length (FL) LXRβ): inactive
O=C(O)c1ccc(-c2cccc(-c3c(-c4ccccc4)c4cc(F)ccc4n3S(=O)(=O)c3ccc(C(F)F)cc3)c2)c(Cl)c1 [C11/39, reference compound] | 100 to 1000 | < 100 | < 100 | FRETβ efficacy (value in brackets) [1, 6]: −91%; EC50 [1, 7]: 104 nM; FL-M2H Gal4α efficacy (value in brackets) (full length (FL) LXRα): 117%; EC50 (full length (FL) LXRα; read-out: FL-M2H Gal4α potency): 14 nM; FL-M2H Gal4β efficacy (value in brackets) (full length (FL) LXRβ): 140%; EC50 (full length (FL) LXRβ; read-out: FL-M2H Gal4β potency): 14 nM
N#Cc1cccc(-c2c(-c3cccc(-c4ccc(C(=O)O)cc4Cl)c3)n(S(=O)(=O)c3ccc(C(F)F)cc3)c3ccc(F)cc23)c1 [C11/48, reference compound] | < 100 | < 100 |  | FRETβ efficacy (value in brackets) [1, 6]: −96%; EC50 [1, 7]: 49 nM; FL-M2H Gal4α efficacy (value in brackets) (full length (FL) LXRα): 118%; EC50 (full length (FL) LXRα; read-out: FL-M2H Gal4α potency): 62 nM; FL-M2H Gal4β efficacy (value in brackets) (full length (FL) LXRβ): 123%; EC50 (full length (FL) LXRβ; read-out: FL-M2H Gal4β potency): 32 nM
Cc1ccc(S(=O)(=O)n2c(-c3cccc(-c4ccc(C(C(=O)O)N(C)C)cc4Cl)c3)c(-c3ccsc3C#N)c3cc(F)ccc32)cc1 (stereo not drawn) [Example 3, 2-(2-Chloro-3′-(3-(2-cyanothiophen-3-yl)-5-fluoro-1-tosyl-1H-indol-2-yl)-[1,1′-biphenyl]-4-yl)-2-(dimethylamino)acetic Acid] | < 100 | < 100 | < 100 | 
